{"source": "patent US12239629B2", "about": "(priority 2020, dated 2025)", "key": {"[1]": {"system": "SARS-CoV2", "assay": "Drug pretreatment of Vero E6 cells prior to SARS-CoV2 infection, indirect immunofluorescence", "type": "cell-based", "conditions": "pretreatment 18-24 hours prior to virus infection", "experimental": "(§1) In carrying out the in vitro experiments, vero E6 cells (an African green monkey kidney cell line) were infected with SARS-CoV2 at a multiplicity of infection of 0.5 for 1 hour. The cells were washed with PBS and then incubated in OPTI-MEM (Invitrogen) medium with or without various concentrations of the following drug candidates: Artemether (from BiopharmaRx) Hydroxychloroquine (from Sigma Aldrich), Atazanavir (from Sigma Aldrich), and Efavirenz (from Sigma Aldrich), Fosamprenavir Calcium (from Sigma Aldrich), Saquinavir (from Sigma Aldrich) and Remdesivir (from AOBIOUS, INC., USA)\n(§2) Immunofluorescence staining was performed with SARS-CoV2-specific hyperimmune mouse ascitic fluid (HMAF) followed by anti-mouse fluorescein-coupled antibody.\nExperiments were carried out to determine the impact of artemether treatment on SARS-CoV2 infection. Permissive Vero E6 cells were pre-treated with various concentrations of artemether (0.1-50 μM) for 18-24 hours prior to virus infection. Cells were then infected with SARS-CoV2, and virus antigens were visualized by indirect immunofluorescence. For quantitative purposes, we counted the number of cells stained positive from three random locations on a slide. The average number of positively stained control cells was scored as 100% and was compared with the number of positive cells observed under various artemether concentrations. Pretreatment with 0.1, 1, 10, 20, 30, 40 and 50 μM artemether reduced infectivity by 4%, 12%, 32%, 45%, 63%, 92% and 100% respectively. Reproducible results were obtained from three independent experiments."}, "[2]": {"system": "SARS-CoV2", "assay": "Drug added to Vero E6 cells immediately after SARS-CoV2 adsorption, indirect immunofluorescence after 24 hours", "type": "cell-based", "experimental": "as §1, §2\nThe antiviral properties of artemether on SARS-CoV2 after the initiation of infection were studied. Vero E6 cells were infected with the virus and fresh medium supplemented with various concentrations of artemether was added immediately after virus adsorption. Infected cells were incubated for an additional 24 hours, after which the presence of virus antigens was analyzed by indirect immunofluorescence analysis. When artemether was added after the initiation of infection, there was a dramatic dose dependent decrease in the number of virus antigen-positive cells. […] A half-maximal inhibitory effect was estimated to occur at 16.5±1.0 μM artemether. […] (FIG. 2)."}, "[3]": {"system": "SARS-CoV2", "assay": "In-vitro experiments, time of drug addition relative to infection", "type": "cell-based", "conditions": "added between 3 hours pre-infection and 3 hours after infection", "experimental": "Less inhibition was detected when the drug was added after 12 hours post-infection (Our observation was consistent with the report by Agostini et al regarding GS-5734 (remdesivir) (Agostini M L, Andres E L, Sims A C, Graham R L, Sheahan T P, Lu X, Smith E C, Case J B, Feng J Y, Jordan R, Ray AS, Cihlar T, Siegel D, Mackman R L, Clarke M O, Baric R S, Denison M R. 2018. Coronavirus susceptibility to the antiviral remdesivir (GS-5734) is mediated by the viral polymerase and the proofreading exoribonuclease. mBio 9:e00221-18. https://doi.org/10.1128/mBio.00221-18.).\nas §1"}, "[4]": {"assay": "Dissolution test of Artemether/Lumefantrine-Remdesivir soft gel capsule", "type": "physicochemical", "conditions": "0.1 N. HCl with 3% Benzalkonium Chloride", "excerpt": "The soft gel capsule of Artemether and Lumefantrine is comprised: Artemether 4 to 5% w/w, Lumefantrine 20-24% w/w, Remdesivir 18-20%, non-aqueous vehicle 15-20% w/w, preservative less than 1% w/w, viscosity imparting agent 15-20% w/w, suspending agent 1 to 5% w/w and emulsifying agent 1 to 3% w/w and a process to manufacture the said preparation comprising of the following steps as given in the above Patent. • (a) Preservatives and Solid Suspending Agents were milled and sifted. • (b) Non-aqueous vehicle, viscosity imparting agent and liquid suspending agents were filtered to remove the foreign particles • (c) Additional steps for mixing preservatives and suspending agents: • (i) Preservatives were dissolved in non-aqueous vehicle; • (ii) Emulsifying agents were warmed and/or melted and added into mixture in (i) above; • (iii) Viscosity imparting agent is added to mixture of (ii) above and the resultant mixture is stirred. • (iv) Suspending agent is added and mixed with the mixture in (iii) above; and • (v) The mixture of (a) above and (c) (iv) above was homogenized. • (d) The mixture in (v) above was the encapsulated in soft gelatin.\nDrug dissolution testing is routinely used to provide critical in vitro drug release information for both quality control purposes to predict in vivo drug release profiles.\nThe media for dissolution test was 0.1 N. HCl with 3% Benzalkonium Chloride."}, "[5]": {"assay": "Peak Inhibitory Concentration (Threshold) after oral administration", "experimental": "It is noted that the Peak Inhibitory Concentration (Threshold) of Artemether and Remdesivir were at 120 minutes after oral administration. The Peak Inhibitory Concentration (Threshold) of Lumefantrine was at 60 minutes after oral administration."}, "[6]": {"assay": "Artemether via nasal delivery system in vivo", "conditions": "administered locally via nasal delivery system in vivo"}, "[7]": {"conditions": "cited from earlier work"}, "[8]": {"conditions": "in vivo; cited from earlier work"}}}
{"substance": "(1R.4S,5R.8S.9R, 10S, 12R, 13R)-10-methoxy-1,5,9-trimethyl-11,14,15,16-tetraoxatetracyclo[10.3. 1.04, 13.08, 13]hexadecane [Artemether]", "values": [{"measurement": "reduced infectivity", "setting": "[1]; 0.1 μM", "result": 4, "unit": "%"}, {"measurement": "reduced infectivity", "setting": "[1]; 1 μM", "result": 12, "unit": "%"}, {"measurement": "reduced infectivity", "setting": "[1]; 10 μM", "result": 32, "unit": "%"}, {"measurement": "reduced infectivity", "setting": "[1]; 20 μM", "result": 45, "unit": "%"}, {"measurement": "reduced infectivity", "setting": "[1]; 30 μM", "result": 63, "unit": "%"}, {"measurement": "reduced infectivity", "setting": "[1]; 40 μM", "result": 92, "unit": "%"}, {"measurement": "reduced infectivity", "setting": "[1]; 50 μM", "result": 100, "unit": "%"}, {"measurement": "inhibition", "setting": "[2]; 40-100 μM concentrations, added after the initiation of infection", "result": "71-96%"}, {"measurement": "reduced the infection", "setting": "[2]; approximately 10 μM added immediately after virus adsorption, 24 hours", "result": 40, "unit": "%"}, {"measurement": "IC50", "setting": "[2]; drug added immediately after virus adsorption, Vero E6 cells, estimated, read-out: half-maximal inhibitory effect", "result": "16.5 ± 1", "unit": "µM"}, {"measurement": "inhibition by time of addition", "setting": "[3]", "result": "maximal inhibition"}, {"measurement": "% Cumulative Drug Release", "setting": "[4]; 60 minute time frame", "result": 92.3, "unit": "%"}, {"measurement": "% of Drug Release in a Dissolution Test", "setting": "[4]; sample time 30 minute", "result": 47.3, "unit": "%"}, {"measurement": "% of Drug Release in a Dissolution Test", "setting": "[4]; sample time 60 minute", "result": 72.25, "unit": "%"}, {"measurement": "% of Drug Release in a Dissolution Test", "setting": "[4]; sample time 90 minute", "result": 88.7, "unit": "%"}, {"measurement": "% of Drug Release in a Dissolution Test", "setting": "[4]; sample time 120 minute", "result": 93.8, "unit": "%"}, {"measurement": "time of Peak Inhibitory Concentration (Threshold)", "setting": "[5]", "result": 120, "unit": "min"}, {"measurement": "absorption and bioavailability, nasal vs systemic administration", "setting": "[6]", "result": "adsorbed quickly with more bioavailability"}, {"measurement": "solubility in water (words)", "setting": "[7]", "result": "sparingly soluble"}]}
{"substance": "Chitosan", "values": [{"measurement": "LD50", "setting": "[8]", "result": "> 4", "unit": "g/kg"}]}
